One data set can be described thus: in vivo. The conditions noted are these: rat, po. The arrangement: species or system male rats. As to the method: The test compound suspended in 0.5% methylcellulose was orally administered to male rats at a dose of 100 or 32 mg/kg/day for 2 weeks.
The test system of data set [1] is H. pylori FP 1757. The data set can be described thus: In vitro anti-microbial activity against Helicobacter pylori (two-fold agar plate dilution method). The data set is classed as cell-based. As to conditions: FP1757, 72 h, test strain H. pylori FP 1757, Brucella agar with 7% horse blood, 37° C., 3 days, 10% CO2.
In data set [2] the test system is H. pylori FP 1757. The data set can be described thus: Therapeutic effects in mouse model (H. pylori infection, eradication). The class given is in vivo, male ICR mice. The conditions noted are these: 0.32 mg/kg/time, oral, twice per day for 4 days; mice sacrificed 2 weeks after final administration. As to the method:
1.5 ml of approx. 10^8 cfu/ml of H. pylori FP 1757 was orally infected into 4 weeks old male ICR mice (Nippon SLC, Hamamatsu, Japan) which had been fasted overnight. […] The test compound was suspended in 0.5% methylcellulose and administered to the mice. The mice were sacrificed at 2 weeks after the final administration and the gastric mucosa was scraped and homogenized in 1 ml of 0.1 M phosphate buffered saline. 0.1 ml aliquots were inoculated onto Brucella agar plate containing 3% horse serum, 2% starch and antibiotics. All plates were incubated at 37° C. under 10% CO2 for 4 or 5 days. Colonies grown on the plate were counted, and the therapeutic effect was evaluated.

For the molecule `NC(=O)Cc1csc(SC2=C(C(=O)O)N3C(=O)[C@@H](NC(=O)Cc4ccccc4)[C@H]3SC2)n1` [Example 14, 7β-(2-Phenylacetamido)-3-(4-carbamoylmethylthiazol-2-yl)thio-3-cephem-4-carboxylic acid], the NOAEL at 336 h in “in vivo” is 100 mg/kg/day.

`NCc1nnc(SC2=C(C(=O)O)N3C(=O)[C@@H](NC(=O)Cc4ccccc4)[C@H]3SC2)s1.O=C(O)C(F)(F)F` [Example 24, 7β-(2-phenylacetamido)-3-(5-aminomethyl-1,3,4-thiadiazol-2-yl)thio-3-cephem-4-carboxylic acid trifluoroacetic acid salt] displayed an MIC in the data set with H. pylori FP 1757 [1] of under 0.02 µg/mL.

In the case of `O=C(O)Cc1csc(SC2=C(C(=O)O)N3C(=O)[C@@H](NC(=O)Cc4cccs4)[C@H]3SC2)n1` [Example 72, 7β-[2-(2-Thienyl)acetamido]-3-(4-carboxymethylthiazol-2-yl)thio-3-cephem-4-carboxylic acid], the eradication in the data set on H. pylori FP 1757 [2] was over 80%.

The values are drawn from patent US6150351A, “Cephem compounds and pharmaceutical use thereof” (Fujisawa Pharmaceutical Co., Ltd., priority 1996, dated 2000).
